Test results from ChEMBL document CHEMBL4049442, “Design, Synthesis, and Biological Evaluation of Dimorpholine Substituted Thienopyrimidines as Potential Class I PI3K/mTOR Dual Inhibitors” (J Med Chem, 2017).
Activity calls are given as the source filed them. The rule behind the calls is not given here.

Legend:
[1] = target: Serine/threonine-protein kinase mTOR (Homo sapiens, UniProt P42345); assay: Inhibition of recombinant human N-terminal FLAG-tagged mTOR (1362 to end residues) expressed in baculovirus infected Sf21 insect cells assessed as reduction in ULight-4E-BP1 phosphorylation after 30 mins by lance ultra assay
LNCaP = assay: cells; details: Homo sapiens, 72 h
[2] = target: PI3-kinase p110-alpha/p85-alpha (Homo sapiens, UniProt P42336); assay: Inhibition of full length recombinant human N-terminal His-tagged PI3K p110alpha/p85alpha expressed in baculovirus using PIP2 as substrate after 1 hr by kinase-glo luminescence assay
Chain of PI3-kinase p110-alpha/p85-alpha (P27986 whole entry): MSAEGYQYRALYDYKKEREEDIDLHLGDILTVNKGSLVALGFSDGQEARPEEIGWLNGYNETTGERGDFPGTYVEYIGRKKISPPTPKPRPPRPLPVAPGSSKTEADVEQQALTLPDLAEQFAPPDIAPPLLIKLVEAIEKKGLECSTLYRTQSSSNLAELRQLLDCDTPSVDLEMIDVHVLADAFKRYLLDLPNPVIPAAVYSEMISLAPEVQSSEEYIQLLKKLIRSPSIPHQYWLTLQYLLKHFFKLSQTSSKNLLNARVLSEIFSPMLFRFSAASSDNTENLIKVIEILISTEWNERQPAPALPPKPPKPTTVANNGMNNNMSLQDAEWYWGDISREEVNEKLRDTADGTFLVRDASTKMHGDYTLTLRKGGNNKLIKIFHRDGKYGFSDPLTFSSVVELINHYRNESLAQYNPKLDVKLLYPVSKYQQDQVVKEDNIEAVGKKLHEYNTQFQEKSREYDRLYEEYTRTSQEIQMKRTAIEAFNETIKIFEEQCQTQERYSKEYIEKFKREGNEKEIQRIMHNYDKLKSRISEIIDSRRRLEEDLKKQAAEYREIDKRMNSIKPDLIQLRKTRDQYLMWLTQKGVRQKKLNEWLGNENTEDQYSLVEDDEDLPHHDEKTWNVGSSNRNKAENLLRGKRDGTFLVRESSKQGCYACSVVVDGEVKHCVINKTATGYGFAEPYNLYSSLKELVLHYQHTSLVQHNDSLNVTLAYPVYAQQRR
Chain of PI3-kinase p110-alpha/p85-alpha (P42336 whole entry): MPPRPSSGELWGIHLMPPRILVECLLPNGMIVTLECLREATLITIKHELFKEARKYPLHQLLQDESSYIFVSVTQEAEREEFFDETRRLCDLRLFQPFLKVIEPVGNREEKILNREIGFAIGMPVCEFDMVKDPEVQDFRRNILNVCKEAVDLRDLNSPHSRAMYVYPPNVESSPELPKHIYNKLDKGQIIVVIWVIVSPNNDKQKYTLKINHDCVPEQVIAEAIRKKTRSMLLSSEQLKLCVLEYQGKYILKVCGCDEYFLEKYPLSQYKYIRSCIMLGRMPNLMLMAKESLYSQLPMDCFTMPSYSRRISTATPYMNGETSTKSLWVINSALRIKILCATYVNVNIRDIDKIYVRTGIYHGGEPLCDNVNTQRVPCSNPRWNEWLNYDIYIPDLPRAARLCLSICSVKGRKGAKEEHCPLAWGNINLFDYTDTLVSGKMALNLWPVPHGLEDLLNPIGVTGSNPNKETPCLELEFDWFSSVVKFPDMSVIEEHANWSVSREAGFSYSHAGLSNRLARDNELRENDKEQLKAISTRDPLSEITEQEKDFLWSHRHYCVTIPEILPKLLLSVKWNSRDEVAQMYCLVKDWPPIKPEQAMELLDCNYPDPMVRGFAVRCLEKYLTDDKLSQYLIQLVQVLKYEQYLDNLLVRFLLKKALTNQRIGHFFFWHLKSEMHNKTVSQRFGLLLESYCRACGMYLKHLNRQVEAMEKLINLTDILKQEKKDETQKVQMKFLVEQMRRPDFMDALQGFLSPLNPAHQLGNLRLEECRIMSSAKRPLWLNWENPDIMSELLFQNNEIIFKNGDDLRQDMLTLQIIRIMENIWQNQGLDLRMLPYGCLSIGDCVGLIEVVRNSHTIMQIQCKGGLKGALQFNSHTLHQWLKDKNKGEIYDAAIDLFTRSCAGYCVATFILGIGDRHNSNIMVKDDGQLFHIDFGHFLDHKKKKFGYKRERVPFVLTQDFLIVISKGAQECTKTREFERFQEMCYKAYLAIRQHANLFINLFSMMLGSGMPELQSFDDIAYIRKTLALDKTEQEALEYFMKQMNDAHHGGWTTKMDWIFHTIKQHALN

PC-3 = assay: cells; details: Homo sapiens, PC-3, 72 h
U-87 MG [3] = assay: cells; details: Homo sapiens, 72 h
SK-OV-3 [4] = assay: cells; details: Homo sapiens, SK-OV-3, 72 h
[5] = target: PI3-kinase p110-delta/p85-alpha (Homo sapiens, UniProt O00329); assay: Inhibition of recombinant full length human N-terminal His6-tagged PI3K p110delta/p85alpha expressed in baculovirus infected Sf21 cells using PIP2 as substrate after 2 hrs by kinase-glo luminescence assay
Chain of PI3-kinase p110-delta/p85-alpha (P27986 whole entry, canonical isoform): as the sequence (P27986 whole entry) above
Chain of PI3-kinase p110-delta/p85-alpha (O00329 whole entry, canonical isoform): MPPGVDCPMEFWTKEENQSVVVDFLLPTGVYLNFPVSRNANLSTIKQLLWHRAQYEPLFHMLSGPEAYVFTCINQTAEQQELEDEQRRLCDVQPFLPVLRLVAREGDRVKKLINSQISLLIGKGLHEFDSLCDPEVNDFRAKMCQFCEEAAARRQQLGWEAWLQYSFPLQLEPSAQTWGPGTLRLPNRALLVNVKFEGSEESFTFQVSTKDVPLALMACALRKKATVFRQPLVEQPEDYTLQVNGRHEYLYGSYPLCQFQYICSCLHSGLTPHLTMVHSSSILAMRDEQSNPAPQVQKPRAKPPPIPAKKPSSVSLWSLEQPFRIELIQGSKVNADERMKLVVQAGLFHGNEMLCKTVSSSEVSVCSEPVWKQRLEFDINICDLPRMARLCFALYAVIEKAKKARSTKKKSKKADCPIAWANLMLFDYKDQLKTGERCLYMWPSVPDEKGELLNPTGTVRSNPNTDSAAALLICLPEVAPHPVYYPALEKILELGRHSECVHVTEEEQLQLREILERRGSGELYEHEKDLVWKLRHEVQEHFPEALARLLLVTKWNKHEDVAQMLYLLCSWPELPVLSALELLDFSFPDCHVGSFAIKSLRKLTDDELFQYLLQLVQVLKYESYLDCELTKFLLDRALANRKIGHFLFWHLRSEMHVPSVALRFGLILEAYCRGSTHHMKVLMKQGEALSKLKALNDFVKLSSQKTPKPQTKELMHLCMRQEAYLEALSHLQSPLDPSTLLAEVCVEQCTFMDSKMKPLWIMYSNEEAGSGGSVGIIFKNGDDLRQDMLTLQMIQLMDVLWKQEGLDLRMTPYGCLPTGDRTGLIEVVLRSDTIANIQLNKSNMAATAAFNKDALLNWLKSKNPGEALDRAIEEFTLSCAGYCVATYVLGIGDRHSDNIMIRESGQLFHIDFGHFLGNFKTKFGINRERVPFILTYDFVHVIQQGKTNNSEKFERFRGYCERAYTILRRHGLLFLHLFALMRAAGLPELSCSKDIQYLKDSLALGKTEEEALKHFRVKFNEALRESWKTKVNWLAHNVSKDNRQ

[6] = target: Phosphatidylinositol 4,5-bisphosphate 3-kinase catalytic subunit beta isoform (Homo sapiens, UniProt P42338); assay: Inhibition of PI3Kbeta (unknown origin) using PIP2 as substrate after 1 hr by ADP-Glo luminescence assay
Chain of Phosphatidylinositol 4,5-bisphosphate 3-kinase catalytic subunit beta isoform (P42338 whole entry, canonical isoform): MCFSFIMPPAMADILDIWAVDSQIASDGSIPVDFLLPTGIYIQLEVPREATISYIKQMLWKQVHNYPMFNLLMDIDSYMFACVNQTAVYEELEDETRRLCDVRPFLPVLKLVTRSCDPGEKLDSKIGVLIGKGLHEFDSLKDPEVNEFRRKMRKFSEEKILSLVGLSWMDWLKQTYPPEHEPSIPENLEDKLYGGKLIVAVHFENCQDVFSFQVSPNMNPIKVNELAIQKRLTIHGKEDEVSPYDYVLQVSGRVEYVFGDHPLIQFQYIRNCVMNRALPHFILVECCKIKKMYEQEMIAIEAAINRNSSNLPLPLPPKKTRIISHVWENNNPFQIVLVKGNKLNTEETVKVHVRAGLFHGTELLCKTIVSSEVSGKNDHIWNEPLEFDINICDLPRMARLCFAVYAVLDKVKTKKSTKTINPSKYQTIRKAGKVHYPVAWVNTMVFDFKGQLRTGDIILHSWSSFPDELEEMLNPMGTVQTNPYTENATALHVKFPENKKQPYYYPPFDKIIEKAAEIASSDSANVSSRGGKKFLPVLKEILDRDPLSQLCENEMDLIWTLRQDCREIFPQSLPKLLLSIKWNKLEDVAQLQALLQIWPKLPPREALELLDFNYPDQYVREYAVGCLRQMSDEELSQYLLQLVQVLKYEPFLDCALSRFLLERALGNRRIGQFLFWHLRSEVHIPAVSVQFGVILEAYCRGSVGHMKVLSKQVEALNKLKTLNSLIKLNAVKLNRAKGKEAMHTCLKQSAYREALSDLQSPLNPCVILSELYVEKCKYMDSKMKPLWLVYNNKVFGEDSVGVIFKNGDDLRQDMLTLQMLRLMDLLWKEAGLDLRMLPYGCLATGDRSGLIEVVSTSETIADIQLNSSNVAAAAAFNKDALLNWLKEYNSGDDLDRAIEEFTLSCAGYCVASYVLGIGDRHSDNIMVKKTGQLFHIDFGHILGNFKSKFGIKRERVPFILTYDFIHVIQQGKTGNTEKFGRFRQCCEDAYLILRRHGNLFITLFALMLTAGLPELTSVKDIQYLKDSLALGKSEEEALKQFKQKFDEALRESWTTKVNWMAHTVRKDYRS

[7] = target: Phosphatidylinositol 4,5-bisphosphate 3-kinase catalytic subunit gamma isoform (Homo sapiens, UniProt P48736); assay: Inhibition of recombinant human His-tagged PI3K p110gamma expressed in baculovirus using PIP2 as substrate after 1 hr by kinase-glo luminescence assay
Chain of Phosphatidylinositol 4,5-bisphosphate 3-kinase catalytic subunit gamma isoform (P48736 whole entry, canonical isoform): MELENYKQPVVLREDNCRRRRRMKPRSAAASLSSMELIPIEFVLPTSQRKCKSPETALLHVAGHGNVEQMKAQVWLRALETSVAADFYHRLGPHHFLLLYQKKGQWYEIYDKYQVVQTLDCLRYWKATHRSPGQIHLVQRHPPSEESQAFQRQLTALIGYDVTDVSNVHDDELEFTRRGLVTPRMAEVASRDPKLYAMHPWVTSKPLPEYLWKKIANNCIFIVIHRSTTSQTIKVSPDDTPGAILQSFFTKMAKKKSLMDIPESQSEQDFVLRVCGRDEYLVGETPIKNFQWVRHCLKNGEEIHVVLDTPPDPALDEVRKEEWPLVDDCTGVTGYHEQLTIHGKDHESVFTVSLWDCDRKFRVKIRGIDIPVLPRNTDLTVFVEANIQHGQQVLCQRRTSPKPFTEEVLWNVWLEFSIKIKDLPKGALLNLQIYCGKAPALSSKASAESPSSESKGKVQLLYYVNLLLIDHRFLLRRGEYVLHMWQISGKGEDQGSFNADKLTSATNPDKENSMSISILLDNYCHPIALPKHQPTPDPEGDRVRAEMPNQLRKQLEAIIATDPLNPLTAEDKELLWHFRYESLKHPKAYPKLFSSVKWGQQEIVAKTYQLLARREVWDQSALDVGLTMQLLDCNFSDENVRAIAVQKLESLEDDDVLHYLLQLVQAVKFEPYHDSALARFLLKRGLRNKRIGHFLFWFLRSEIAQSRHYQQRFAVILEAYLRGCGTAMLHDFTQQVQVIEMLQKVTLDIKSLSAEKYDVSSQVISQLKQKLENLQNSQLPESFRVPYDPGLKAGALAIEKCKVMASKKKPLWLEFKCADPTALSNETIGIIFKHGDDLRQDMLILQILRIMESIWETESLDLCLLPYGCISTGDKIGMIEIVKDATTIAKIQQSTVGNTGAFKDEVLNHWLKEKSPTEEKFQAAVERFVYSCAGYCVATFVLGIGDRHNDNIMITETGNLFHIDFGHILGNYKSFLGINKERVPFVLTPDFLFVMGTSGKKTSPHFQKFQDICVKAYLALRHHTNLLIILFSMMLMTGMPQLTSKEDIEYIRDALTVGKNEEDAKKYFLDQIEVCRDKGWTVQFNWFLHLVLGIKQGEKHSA

SK-OV-3 [8] = assay: Antitumor activity against human SKOV3 cells xenografted in BALB/c nude mouse assessed as tumor growth inhibition at 30 mg/kg/day, po for 24 days measured every 3 days during compound dosing relative to control; type: functional
U-87 MG [9] = assay: Antitumor activity against human U87MG cells xenografted in BALB/c nude mouse assessed as tumor growth inhibition at 20 mg/kg/day, po for 18 days measured every 3 days during compound dosing relative to control; type: functional; details: U-87MG ATCC

Row | SMILES | IC50 [1] | IC50 (LNCaP) | IC50 [2] | IC50 (PC-3) | IC50 (U-87 MG [3]) | IC50 (SK-OV-3 [4]) | IC50 [5] | IC50 [6] | IC50 [7] | TGI (SK-OV-3 [8]) | TGI (U-87 MG [9])
1 | C[C@@H]1CN(c2nc(N3CCOCC3)c3sc(-c4ccccn4)cc3n2)C[C@H](C)O1 | 0.27 µM | 4.43 µM | 0.694 µM | 2.75 µM | 4.45 µM | 0.99 µM |  |  |  |  | 
2 | CC(=O)c1cc2nc(N3CCOCC3)nc(N3CCOCC3)c2s1 | > 2 µM |  | 0.675 µM |  |  |  |  |  |  |  | 
3 | C[C@@H]1CN(c2nc(N3CCOCC3)c3sc(-c4cccnc4)cc3n2)C[C@H](C)O1 | 0.612 µM | 3 µM | 0.281 µM | 12.8 µM | > 25 µM | 15.7 µM |  |  |  |  | 
4 | C[C@@H]1CN(c2nc(N3CCOCC3)c3sc(C(N)=O)cc3n2)C[C@H](C)O1 | 0.865 µM | 3.27 µM | 0.191 µM | 4.32 µM | > 25 µM | 7.11 µM |  |  |  |  | 
5 | C[C@@H]1CN(c2nc(N3CCOCC3)c3sc(-c4ccnn4C)cc3n2)C[C@H](C)O1 | > 2 µM |  | 1.24 µM |  |  |  |  |  |  |  | 
6 | C[C@@H]1CN(c2nc(N3CCOCC3)c3sc(-c4cnc(N)nc4)cc3n2)C[C@H](C)O1 | 0.424 µM | 4.53 µM | 0.024 µM | 3.67 µM | > 25 µM | 10 µM | 0.171 µM | 0.317 µM | 0.035 µM |  | 
7 | CN1CCN(c2nc(N3CCOCC3)c3sc(CO)cc3n2)CC1 | > 2 µM |  | 1.03 µM |  |  |  |  |  |  |  | 
8 | OCc1cc2nc(N3CCOc4ccccc43)nc(N3CCOCC3)c2s1 | 0.336 µM | 1.82 µM | 0.681 µM | 2.67 µM | 21.2 µM | 2.89 µM |  |  |  |  | 
9 | CS(=O)(=O)N1CCN(Cc2cc3nc(-c4cccc5[nH]ncc45)nc(N4CCOCC4)c3s2)CC1 |  |  |  |  |  |  |  |  |  | inactive | inactive
10 | CC(O)c1cc2nc(N3C[C@@H](C)O[C@@H](C)C3)nc(N3CCOCC3)c2s1 (stereo not given in full) | 0.632 µM | 2.59 µM | 0.122 µM | 1.38 µM | 3.29 µM | 1.22 µM |  |  |  |  | 
11 | C[C@@H]1CN(c2nc(N3CCOCC3)c3sc(CO)cc3n2)C[C@H](C)O1 | 0.463 µM | 1.78 µM | 0.216 µM | 1.05 µM | 6.59 µM | 4.99 µM |  |  |  |  | 
12 | c1nc2c(N3CCOCC3)nc(N3CCOCC3)nc2[nH]1 | > 2 µM |  | > 10 µM |  |  |  |  |  |  |  | 
13 | COc1ccc(-c2cc3nc(N4C[C@@H](C)O[C@@H](C)C4)nc(N4CCOCC4)c3s2)cn1 | > 2 µM |  | > 10 µM |  |  |  |  |  |  |  | 
14 | Cc1c(-c2ccn[nH]2)sc2c(N3CCOCC3)nc(N3C[C@@H](C)O[C@@H](C)C3)nc12 | 0.073 µM | 1.1 µM | 0.197 µM | 1.74 µM | 8.76 µM | 0.83 µM |  |  |  |  | 
15 | CCC(O)c1cc2nc(N3C[C@@H](C)O[C@@H](C)C3)nc(N3CCOCC3)c2s1 (stereo not given in full) | > 2 µM | 1.6 µM | 0.239 µM | 2.97 µM | > 25 µM | 9.12 µM |  |  |  |  | 
16 | C[C@@H]1CN(c2nc(N3CCOCC3)c3sc(-c4ccoc4)cc3n2)C[C@H](C)O1 | 0.222 µM | 6.77 µM | 3.56 µM | 5.92 µM | > 25 µM | 21.8 µM |  |  |  |  | 
17 | C[C@@H]1CN(c2nc(N3CCOCC3)c3sc(-c4ccncc4)cc3n2)C[C@H](C)O1 | > 2 µM |  | > 10 µM |  |  |  |  |  |  |  | 
18 | C[C@@H]1COCCN1c1nc(N2CCOCC2)c2sc(CO)cc2n1 | 0.335 µM | 2.63 µM | 0.299 µM | 1.32 µM | > 25 µM | 2.17 µM |  |  |  |  | 

Row | SMILES | IC50 [1] | IC50 (LNCaP) | IC50 [2] | IC50 (PC-3) | IC50 (U-87 MG [3]) | IC50 (SK-OV-3 [4]) | IC50 [5] | IC50 [6] | IC50 [7] | TGI (SK-OV-3 [8]) | TGI (U-87 MG [9])
19 | C[C@@H]1CN(c2nc(N3CCOCC3)c3sc(-c4ccc(N)nc4)cc3n2)C[C@H](C)O1 | 0.07 µM | 1.13 µM | 0.165 µM | 7 µM | > 25 µM | 2.9 µM |  |  |  |  | 
20 | CS(=O)(=O)N1CCN(Cc2cc3nc(N4CCOCC4)nc(N4CCOCC4)c3s2)CC1 | > 2 µM |  | 4.82 µM |  |  |  |  |  |  |  | 
21 | c1cc2c(N3CCOCC3)nc(N3CCOCC3)nc2[nH]1 | > 2 µM |  | 6.18 µM |  |  |  |  |  |  |  | 
22 | C[C@@H]1CN(c2nc(N3CCOCC3)c3sc(-c4ccccc4O)cc3n2)C[C@H](C)O1 | 0.225 µM | 2.38 µM | > 10 µM | 2.49 µM | 9.88 µM | 1.8 µM |  |  |  |  | 
23 | C[C@@H]1CN(c2nc(N3CCOCC3)c3sc(-c4cn[nH]c4)cc3n2)C[C@H](C)O1 | 0.427 µM | 4.05 µM | 0.995 µM | > 25 µM | > 25 µM | 10.1 µM |  |  |  |  | 
24 | C[C@@H]1CN(c2nc(N3CCOCC3)c3sc(-c4cnn(C)c4)cc3n2)C[C@H](C)O1 | > 2 µM |  | 4.95 µM |  |  |  |  |  |  |  | 
25 | OCc1cc2nc(N3CCOCC3)nc(N3CCOCC3)c2s1 | > 2 µM | 2.06 µM | 0.216 µM | 6 µM | 17.5 µM | 8.24 µM |  |  |  |  | 
26 | C[C@@H]1CN(c2nc(N3CCOCC3)c3sc(-c4ccco4)cc3n2)C[C@H](C)O1 | 0.109 µM | 2.64 µM | 2.2 µM | > 25 µM | 12.8 µM | 5.91 µM |  |  |  |  | 
27 | CS(=O)(=O)N1CCN(c2nc(N3CCOCC3)c3sc(CO)cc3n2)CC1 | > 2 µM | 6.16 µM | 0.279 µM | 15 µM | > 25 µM | 23.3 µM |  |  |  |  | 
28 | C[C@@H]1CN(c2nc(N3CCOCC3)c3sc(-c4ccc[nH]4)cc3n2)C[C@H](C)O1 | 0.172 µM | 2.39 µM | 4.18 µM | 3.05 µM | > 25 µM | 18.9 µM |  |  |  |  | 
29 | C[C@@H]1CN(c2nc(N3CCOCC3)c3sc(-c4cccc5[nH]ncc45)cc3n2)C[C@H](C)O1 | > 2 µM |  | > 10 µM |  |  |  |  |  |  |  | 
30 | C[C@@H]1CN(c2nc(N3CCOCC3)c3sc(-c4cncnc4)cc3n2)C[C@H](C)O1 | > 2 µM |  | 9.47 µM |  |  |  |  |  |  |  | 
31 | O=C(O)c1cc2nc(N3CCOCC3)nc(N3CCOCC3)c2s1 | > 2 µM | 23.6 µM | 0.237 µM | > 25 µM | 2.44 µM | > 25 µM |  |  |  |  | 
32 | C[C@@H]1CN(c2nc(N3CCOCC3)c3sc(-c4ccsc4)cc3n2)C[C@H](C)O1 | > 2 µM |  | > 10 µM |  |  |  |  |  |  |  | 
33 | C[C@@H]1CN(c2nc(N3CCOCC3)c3sc(C(O)Cc4ccccc4)cc3n2)C[C@H](C)O1 (stereo not given in full) | > 2 µM |  | 2.05 µM |  |  |  |  |  |  |  | 
34 | OCc1cc2nc(N3CCSCC3)nc(N3CCOCC3)c2s1 | 0.603 µM | 4.2 µM | 0.249 µM | 2.26 µM | > 25 µM | 2.18 µM |  |  |  |  | 
35 | c1cc2nc(N3CCOCC3)nc(N3CCOCC3)c2s1 | > 2 µM |  | 1.87 µM |  |  |  |  |  |  |  | 
36 | C[C@@H]1CN(c2nc(N3CCOCC3)c3sc(-c4ccccc4)cc3n2)C[C@H](C)O1 | > 2 µM |  | > 10 µM |  |  |  |  |  |  |  | 
